This passage reports IC50 results from ChEMBL document CHEMBL1135869, “Peptide inhibitors of CDK2-cyclin A that target the cyclin recruitment-site: structural variants of the C-terminal Phe” (Bioorg Med Chem Lett, 2002).

Assay [1] can be described thus: Inhibition of p21WAF1 peptide recruitment to CDK 2/cyclin-A complex.
A short description of assay [2]: Inhibition of competitive binding to cyclin-A kinase complex.
Assay [3] addresses Cyclin-dependent kinase 2/cyclin A (Homo sapiens, UniProt P24941). As to the kind of experiment: In vitro inhibition of CDK2-cyclin A kinase activity on retinoblastoma protein. Format: protein-complex assay.

Starred links: 1 amine or outer side, 2 acyl side, 3 side chain; linkers in the order of their positions; H or OH if unused. Non-standard residues stand in square brackets, D forms with d. Residues, ends and D or L forms follow the SMILES beside them. X3 = CC(=O)O[C@@H](c1ccccc1)[C@@H](N[*:1])C(=O)[*:2]; X1 = CC(=O)O[C@H](c1ccccc1)[C@H](N[*:1])C(=O)[*:2]; X2 = O=C(/C(=C/c1ccccc1)N[*:1])[*:2]; Phe(ol) = N[C@H](CO)Cc1ccccc1

The term IC50 denotes the point on the concentration scale where inhibition reaches its midpoint. The low end stands for greater potency in that assay, the high end for weaker potency in that assay. `CC[C@H](C)[C@H](NC(=O)[C@H](CC(C)C)NC(=O)[C@H](CCCN=C(N)N)NC(=O)[C@H](CCCN=C(N)N)NC(=O)[C@H](CCCCN)NC(=O)[C@H](CO)NC(=O)[C@@H](N)Cc1c[nH]cn1)C(=O)N[C@@H](C(=O)O)[C@@H](OC(C)=O)c1ccccc1` (H-HSKRRLI[X3]-OH): the IC50 in assay [1] is 0.6 µM; in assay [2], 1.82 µM.

Consider `CC[C@H](C)[C@H](NC(=O)[C@H](CC(C)C)NC(=O)[C@H](CCCN=C(N)N)NC(=O)[C@H](CCCN=C(N)N)NC(=O)[C@H](CCCCN)NC(=O)[C@H](C)NC(=O)[C@@H](N)Cc1c[nH]cn1)C(=O)N[C@@H](C(=O)O)[C@@H](O)c1ccccc1`, for which the IC50 in assay [1] came to 0.11 µM; in assay [2], 0.12 µM.

`CC[C@H](C)[C@H](NC(=O)[C@H](CC(C)C)NC(=O)[C@H](CCCN=C(N)N)NC(=O)[C@H](CCCN=C(N)N)NC(=O)[C@H](CCCCN)NC(=O)[C@H](C)NC(=O)[C@@H](N)Cc1c[nH]cn1)C(=O)N[C@H](C(=O)O)[C@H](O)c1ccccc1`: the figures for the IC50 in assay [1] and in assay [2] were 0.028 µM and 0.074 µM, respectively.

Consider `CC[C@H](C)[C@H](NC(=O)[C@H](CC(C)C)NC(=O)[C@H](CCCN=C(N)N)NC(=O)[C@H](CCCN=C(N)N)NC(=O)[C@H](CCCCN)NC(=O)[C@H](CO)NC(=O)[C@@H](N)Cc1c[nH]cn1)C(=O)N[C@H](C(=O)O)[C@H](OC(C)=O)c1ccccc1` (H-HSKRRLI[X1]-OH), for which the IC50 in assay [1] came to 0.8 µM; in assay [2], 1.32 µM.

Regarding `CC[C@H](C)[C@H](NC(=O)[C@H](CC(C)C)NC(=O)[C@H](CCCN=C(N)N)NC(=O)[C@H](CCCN=C(N)N)NC(=O)[C@H](CCCCN)NC(=O)[C@H](CO)NC(=O)[C@@H](N)Cc1c[nH]cn1)C(=O)N/C(=C\c1ccccc1)C(=O)O` (H-HSKRRLI[X2]-OH), the IC50 in assay [3] worked out at 1.3 µM; in assay [1], 0.22 µM; in assay [2] it was 0.2 µM.

For `CC[C@H](C)[C@H](NC(=O)[C@H](CC(C)C)NC(=O)[C@H](CCCN=C(N)N)NC(=O)[C@H](CCCN=C(N)N)NC(=O)[C@H](CCCCN)NC(=O)[C@H](C)NC(=O)[C@@H](N)Cc1c[nH]cn1)C(=O)N/C(=C\c1ccccc1)C(=O)O` (H-HAKRRLI[X2]-OH), the IC50 in assay [3] was determined as 0.07 µM; in assay [1] it was 0.054 µM; in assay [2], 0.06 µM.

With `CC[C@H](C)[C@H](NC(=O)[C@H](CC(C)C)NC(=O)[C@H](CCCN=C(N)N)NC(=O)[C@H](CCCN=C(N)N)NC(=O)[C@H](CCCCN)NC(=O)[C@H](C)NC(=O)[C@@H](N)Cc1c[nH]cn1)C(=O)N[C@@H](C(=O)O)[C@@H](OC(C)=O)c1ccccc1` (H-HAKRRLI[X3]-OH), the IC50 in assay [1] turned out to be 0.16 µM; in assay [2] it was 0.19 µM.

Consider `CC[C@H](C)[C@H](NC(=O)[C@H](CC(C)C)NC(=O)[C@H](CCCN=C(N)N)NC(=O)[C@H](CCCN=C(N)N)NC(=O)[C@H](CCCCN)NC(=O)[C@H](CO)NC(=O)[C@@H](N)Cc1c[nH]cn1)C(=O)N[C@@H](C(=O)O)[C@@H](O)c1ccccc1`, for which the IC50 in assay [3] was 1.2 µM; in assay [1], 0.71 µM; in assay [2], 0.76 µM.

For `CC[C@H](C)[C@H](NC(=O)[C@H](CC(C)C)NC(=O)[C@H](CCCN=C(N)N)NC(=O)[C@H](CCCN=C(N)N)NC(=O)[C@H](CCCCN)NC(=O)[C@H](C)NC(=O)[C@@H](N)Cc1c[nH]cn1)C(=O)N[C@H](CO)Cc1ccccc1` (H-HAKRRLI[Phe(ol)]), the figures for the IC50 in assay [1] and in assay [2] were 0.018 µM and 0.022 µM, respectively.

On to `CC[C@H](C)[C@H](NC(=O)[C@H](CC(C)C)NC(=O)[C@H](CCCN=C(N)N)NC(=O)[C@H](CCCN=C(N)N)NC(=O)[C@H](CCCCN)NC(=O)[C@H](C)NC(=O)[C@@H](N)Cc1c[nH]cn1)C(=O)N[C@H](C(=O)O)[C@H](OC(C)=O)c1ccccc1` (H-HAKRRLI[X1]-OH), for which the IC50 was found to be 0.32 µM in assay [3], 0.24 µM in assay [1] and 0.23 µM in assay [2].

For `CC[C@H](C)[C@H](NC(=O)[C@H](CC(C)C)NC(=O)[C@H](CCCN=C(N)N)NC(=O)[C@H](CCCN=C(N)N)NC(=O)[C@H](CCCCN)NC(=O)[C@H](CO)NC(=O)[C@@H](N)Cc1c[nH]cn1)C(=O)N[C@H](CO)Cc1ccccc1`, the results for the IC50 in assay [3] and in assay [1] were 0.43 µM and 0.31 µM, respectively.

Take `CC[C@H](C)[C@H](NC(=O)[C@H](CC(C)C)NC(=O)[C@H](CCCN=C(N)N)NC(=O)[C@H](CCCN=C(N)N)NC(=O)[C@H](CCCCN)NC(=O)[C@H](CO)NC(=O)[C@@H](N)Cc1c[nH]cn1)C(=O)N[C@H](C(=O)O)[C@H](O)c1ccccc1`: the results for the IC50 in assay [3], in assay [1] and in assay [2] were 0.56 µM, 0.19 µM and 0.25 µM, respectively.

As to `CC[C@H](C)[C@H](NC(=O)[C@H](CC(C)C)NC(=O)[C@H](CCCN=C(N)N)NC(=O)[C@H](CCCN=C(N)N)NC(=O)[C@H](CCCCN)NC(=O)[C@H](CO)NC(=O)[C@@H](N)Cc1c[nH]cn1)C(=O)N[C@@H](Cc1ccccc1)C(N)=O`, the figures for the IC50 in assay [3] and in assay [2] were 3.4 µM and 4.3 µM, respectively.

Regarding `CC[C@H](C)[C@H](NC(=O)[C@H](CC(C)C)NC(=O)[C@H](CCCNC(=N)N)NC(=O)[C@H](CCCNC(=N)N)NC(=O)[C@H](CCCCN)NC(=O)[C@H](C)NC(=O)[C@@H](N)Cc1cnc[nH]1)C(=O)N[C@@H](C(=O)O)[C@@H](OC(C)=O)c1ccccc1`, it took 0.2 µM to reach half-maximal inhibition in assay [3] (IC50).
